Legend:
[1] = target: Serine/threonine-protein kinase 33 (Homo sapiens) (UniProt Q9BYT3); conditions: Compound concentration 1000.0 nM
[2] = target: Dual specificity protein kinase CLK3 (Homo sapiens) (UniProt P49761); conditions: Compound concentration 1000.0 nM
[3] = target: Proto-oncogene tyrosine-protein kinase Src (Homo sapiens) (UniProt P12931); conditions: Compound concentration 1000.0 nM
[4] = target: Prostaglandin G/H synthase 2 (Homo sapiens) (UniProt P35354); test: COX-2 Eurofins-Panlabs selectivity data (BI); conditions: Compound concentration 10.0 uM
[5] = target: Voltage-dependent L-type calcium channel subunit alpha-1C (phenylalkylamine site) (Rattus norvegicus, UniProt P22002); test: CA+/PAASITE Eurofins-Panlabs selectivity data (BI); conditions: compound concentration 10 uM, read-out: % Ctrl
[6] = target: Sodium-dependent dopamine transporter (Homo sapiens, UniProt Q01959); test: GPCRScan assay: inhibition of DAT; parameters: radioligand conc. used [nm] 3.6 – 16.0, parental cells stable HEK
[7] = test system: Epidermal growth factor receptor (Homo sapiens), P00533 [UNDEFINED MUTATION]; conditions: Compound concentration 1000.0 nM
[8] = target: Leukotriene C4 synthase (Cavia porcellus) (UniProt A6XA80); test: LTC4SYN Eurofins-Panlabs selectivity data (BI); conditions: Compound concentration 10.0 uM
[9] = target: Serine/threonine-protein kinase 36 (Homo sapiens) (UniProt Q9NRP7); conditions: Compound concentration 1000.0 nM
[10] = target: 3',5'-cyclic-AMP phosphodiesterase 4A (Homo sapiens) (UniProt P27815); test: PDE-IV/HU Eurofins-Panlabs selectivity data (BI); conditions: Compound concentration 10.0 uM
[11] = target: Dual specificity protein kinase TTK (Homo sapiens) (UniProt P33981); conditions: Compound concentration 1000.0 nM
[12] = target: Calcium/calmodulin-dependent protein kinase type 1D (Homo sapiens) (UniProt Q8IU85); conditions: Compound concentration 1000.0 nM
[13] = target: Myosin-IIIa (Homo sapiens) (UniProt Q8NEV4); conditions: Compound concentration 1000.0 nM
[14] = target: Serine/threonine-protein kinase Nek4 (Homo sapiens) (UniProt P51957); conditions: Compound concentration 1000.0 nM
[15] = target: Mitogen-activated protein kinase kinase kinase kinase 1 (Homo sapiens) (UniProt Q92918); conditions: Compound concentration 1000.0 nM
[16] = target: Serine/threonine-protein kinase Nek5 (Homo sapiens) (UniProt Q6P3R8); conditions: Compound concentration 1000.0 nM
[17] = target: Muscle, skeletal receptor tyrosine-protein kinase (Homo sapiens) (UniProt O15146); conditions: Compound concentration 1000.0 nM
[18] = target: 5-hydroxytryptamine receptor 1A (Homo sapiens) (UniProt P08908); conditions: Compound concentration 10.0 uM
[19] = target: Activin receptor type-1-like (Homo sapiens) (UniProt P37023); conditions: Compound concentration 1000.0 nM
[20] = test system: Tyrosine-protein kinase ABL1 (Homo sapiens), P00519 [T315I]; conditions: Compound concentration 1000.0 nM
[21] = target: Ribosomal protein S6 kinase alpha-2 (Homo sapiens) (UniProt Q15349); conditions: Compound concentration 1000.0 nM
[22] = target: SNF-related serine/threonine-protein kinase (Homo sapiens) (UniProt Q9NRH2); conditions: Compound concentration 1000.0 nM
[23] = target: Tyrosine-protein kinase ABL1 (Homo sapiens) (UniProt P00519); conditions: Compound concentration 1000.0 nM
[24] = target: Tyrosine-protein kinase Blk (Homo sapiens) (UniProt P51451); conditions: Compound concentration 1000.0 nM
[25] = test system: Hepatocyte growth factor receptor (Homo sapiens), P08581 [Y1235D]; conditions: Compound concentration 1000.0 nM
[26] = target: Dual specificity tyrosine-phosphorylation-regulated kinase 2 (Homo sapiens) (UniProt Q92630); conditions: Compound concentration 1000.0 nM
[27] = target: Mitogen-activated protein kinase kinase kinase 20 (Homo sapiens) (UniProt Q9NYL2); conditions: Compound concentration 1000.0 nM
[28] = target: Wee1-like protein kinase 2 (Homo sapiens) (UniProt P0C1S8); conditions: Compound concentration 1000.0 nM
[29] = target: Sigma non-opioid intracellular receptor 1 (Homo sapiens, UniProt Q99720); conditions: Compound concentration 10.0 uM
[30] = test system: Mast/stem cell growth factor receptor Kit (Homo sapiens), P10721 [D816H]; conditions: Compound concentration 1000.0 nM
[31] = test system: Receptor-type tyrosine-protein kinase FLT3 (Homo sapiens), P36888 [N841I]; conditions: Compound concentration 1000.0 nM
[32] = target: Activated CDC42 kinase 1 (Homo sapiens) (UniProt Q07912); conditions: Compound concentration 1000.0 nM
[33] = target: Platelet-derived growth factor receptor beta (Homo sapiens) (UniProt P09619); conditions: Compound concentration 1000.0 nM
[34] = target: Voltage-dependent L-type calcium channel subunit alpha-1C (DHP site) (Rattus norvegicus, UniProt P22002); test: CA+/DHPSI/RA Eurofins-Panlabs selectivity data (BI); conditions: compound concentration 10 uM, read-out: % Ctrl
[35] = target: Cyclin-G-associated kinase (Homo sapiens) (UniProt O14976); conditions: Compound concentration 1000.0 nM
[36] = target: 5-hydroxytryptamine receptor 2C (Homo sapiens) (UniProt P28335); conditions: Compound concentration 10.0 uM
[37] = target: Ephrin type-B receptor 6 (Homo sapiens) (UniProt O15197); conditions: Compound concentration 1000.0 nM
[38] = target: Protein-tyrosine kinase 2-beta (Homo sapiens) (UniProt Q14289); conditions: Compound concentration 1000.0 nM
[39] = target: Rhodopsin kinase GRK1 (Homo sapiens) (UniProt Q15835); conditions: Compound concentration 1000.0 nM
[40] = target: Cyclin-dependent kinase 4 (Homo sapiens) (UniProt P11802); conditions: Compound concentration 1000.0 nM
[41] = target: Focal adhesion kinase 1 (Homo sapiens) (UniProt Q05397); conditions: Compound concentration 1000.0 nM
[42] = target: Phosphatidylinositol 5-phosphate 4-kinase type-2 beta (Homo sapiens) (UniProt P78356); conditions: Compound concentration 1000.0 nM
[43] = target: Ribosomal protein S6 kinase alpha-4 (Homo sapiens) (UniProt O75676); conditions: Compound concentration 1000.0 nM
[44] = test system: Leucine-rich repeat serine/threonine-protein kinase 2 (Homo sapiens), Q5S007 [G2019S]; conditions: Compound concentration 1000.0 nM

Chain of Sodium-dependent dopamine transporter (Q01959 whole entry): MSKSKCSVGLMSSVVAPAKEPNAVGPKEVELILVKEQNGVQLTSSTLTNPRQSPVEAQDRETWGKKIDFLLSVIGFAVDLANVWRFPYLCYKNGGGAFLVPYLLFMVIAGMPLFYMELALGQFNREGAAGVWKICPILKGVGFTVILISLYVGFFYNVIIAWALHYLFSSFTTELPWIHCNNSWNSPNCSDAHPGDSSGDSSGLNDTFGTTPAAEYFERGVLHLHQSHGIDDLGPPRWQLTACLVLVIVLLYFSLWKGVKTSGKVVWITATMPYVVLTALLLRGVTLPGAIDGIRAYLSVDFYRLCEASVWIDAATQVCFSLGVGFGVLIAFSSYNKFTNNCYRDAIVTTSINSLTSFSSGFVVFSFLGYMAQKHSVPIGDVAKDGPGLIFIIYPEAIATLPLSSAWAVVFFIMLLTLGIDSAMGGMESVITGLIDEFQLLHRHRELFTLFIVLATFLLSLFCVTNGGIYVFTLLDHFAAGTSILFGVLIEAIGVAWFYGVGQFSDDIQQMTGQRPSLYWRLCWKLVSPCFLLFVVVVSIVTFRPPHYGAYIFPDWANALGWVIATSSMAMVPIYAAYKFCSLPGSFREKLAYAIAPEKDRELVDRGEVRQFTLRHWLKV
Chain of Dual specificity protein kinase TTK (Homo sapiens) (P33981 whole entry): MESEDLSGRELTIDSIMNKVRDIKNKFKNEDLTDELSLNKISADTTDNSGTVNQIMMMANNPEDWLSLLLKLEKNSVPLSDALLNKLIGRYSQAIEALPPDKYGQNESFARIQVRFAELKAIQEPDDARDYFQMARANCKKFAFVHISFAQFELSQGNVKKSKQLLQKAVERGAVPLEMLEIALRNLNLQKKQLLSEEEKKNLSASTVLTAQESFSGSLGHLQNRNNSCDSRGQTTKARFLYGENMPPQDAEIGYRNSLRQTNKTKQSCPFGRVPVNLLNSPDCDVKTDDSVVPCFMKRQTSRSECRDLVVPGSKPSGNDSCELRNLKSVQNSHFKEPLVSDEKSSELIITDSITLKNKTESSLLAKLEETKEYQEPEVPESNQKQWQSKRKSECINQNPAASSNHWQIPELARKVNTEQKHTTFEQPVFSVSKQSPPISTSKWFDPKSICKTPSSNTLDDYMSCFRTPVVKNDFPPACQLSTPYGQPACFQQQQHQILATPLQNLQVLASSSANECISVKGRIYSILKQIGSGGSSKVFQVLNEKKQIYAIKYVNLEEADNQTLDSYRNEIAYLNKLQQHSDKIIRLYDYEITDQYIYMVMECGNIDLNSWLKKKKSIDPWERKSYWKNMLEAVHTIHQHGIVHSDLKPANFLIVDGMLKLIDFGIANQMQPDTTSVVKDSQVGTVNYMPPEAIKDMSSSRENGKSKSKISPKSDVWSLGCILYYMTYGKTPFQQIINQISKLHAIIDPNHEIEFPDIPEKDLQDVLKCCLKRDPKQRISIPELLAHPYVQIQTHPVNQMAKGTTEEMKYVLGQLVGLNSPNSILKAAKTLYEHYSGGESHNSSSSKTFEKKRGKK
Chain of Proto-oncogene tyrosine-protein kinase Src (Homo sapiens) (P12931 2-536 limits assumed): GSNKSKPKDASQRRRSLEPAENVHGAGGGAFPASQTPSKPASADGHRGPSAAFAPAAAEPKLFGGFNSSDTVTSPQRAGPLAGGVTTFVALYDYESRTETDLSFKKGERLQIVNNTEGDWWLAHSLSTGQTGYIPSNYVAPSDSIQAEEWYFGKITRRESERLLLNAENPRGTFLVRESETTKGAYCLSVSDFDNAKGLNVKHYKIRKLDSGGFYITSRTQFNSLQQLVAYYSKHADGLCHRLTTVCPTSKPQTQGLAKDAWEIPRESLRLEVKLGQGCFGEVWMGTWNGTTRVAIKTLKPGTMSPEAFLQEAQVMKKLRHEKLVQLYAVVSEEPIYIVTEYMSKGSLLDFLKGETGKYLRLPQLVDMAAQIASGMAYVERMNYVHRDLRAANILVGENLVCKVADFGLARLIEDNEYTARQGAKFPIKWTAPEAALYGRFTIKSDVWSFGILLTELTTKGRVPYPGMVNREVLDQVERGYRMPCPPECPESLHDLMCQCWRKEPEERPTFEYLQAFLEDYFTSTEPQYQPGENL
Chain of Myosin-IIIa (Homo sapiens) (Q8NEV4 whole entry): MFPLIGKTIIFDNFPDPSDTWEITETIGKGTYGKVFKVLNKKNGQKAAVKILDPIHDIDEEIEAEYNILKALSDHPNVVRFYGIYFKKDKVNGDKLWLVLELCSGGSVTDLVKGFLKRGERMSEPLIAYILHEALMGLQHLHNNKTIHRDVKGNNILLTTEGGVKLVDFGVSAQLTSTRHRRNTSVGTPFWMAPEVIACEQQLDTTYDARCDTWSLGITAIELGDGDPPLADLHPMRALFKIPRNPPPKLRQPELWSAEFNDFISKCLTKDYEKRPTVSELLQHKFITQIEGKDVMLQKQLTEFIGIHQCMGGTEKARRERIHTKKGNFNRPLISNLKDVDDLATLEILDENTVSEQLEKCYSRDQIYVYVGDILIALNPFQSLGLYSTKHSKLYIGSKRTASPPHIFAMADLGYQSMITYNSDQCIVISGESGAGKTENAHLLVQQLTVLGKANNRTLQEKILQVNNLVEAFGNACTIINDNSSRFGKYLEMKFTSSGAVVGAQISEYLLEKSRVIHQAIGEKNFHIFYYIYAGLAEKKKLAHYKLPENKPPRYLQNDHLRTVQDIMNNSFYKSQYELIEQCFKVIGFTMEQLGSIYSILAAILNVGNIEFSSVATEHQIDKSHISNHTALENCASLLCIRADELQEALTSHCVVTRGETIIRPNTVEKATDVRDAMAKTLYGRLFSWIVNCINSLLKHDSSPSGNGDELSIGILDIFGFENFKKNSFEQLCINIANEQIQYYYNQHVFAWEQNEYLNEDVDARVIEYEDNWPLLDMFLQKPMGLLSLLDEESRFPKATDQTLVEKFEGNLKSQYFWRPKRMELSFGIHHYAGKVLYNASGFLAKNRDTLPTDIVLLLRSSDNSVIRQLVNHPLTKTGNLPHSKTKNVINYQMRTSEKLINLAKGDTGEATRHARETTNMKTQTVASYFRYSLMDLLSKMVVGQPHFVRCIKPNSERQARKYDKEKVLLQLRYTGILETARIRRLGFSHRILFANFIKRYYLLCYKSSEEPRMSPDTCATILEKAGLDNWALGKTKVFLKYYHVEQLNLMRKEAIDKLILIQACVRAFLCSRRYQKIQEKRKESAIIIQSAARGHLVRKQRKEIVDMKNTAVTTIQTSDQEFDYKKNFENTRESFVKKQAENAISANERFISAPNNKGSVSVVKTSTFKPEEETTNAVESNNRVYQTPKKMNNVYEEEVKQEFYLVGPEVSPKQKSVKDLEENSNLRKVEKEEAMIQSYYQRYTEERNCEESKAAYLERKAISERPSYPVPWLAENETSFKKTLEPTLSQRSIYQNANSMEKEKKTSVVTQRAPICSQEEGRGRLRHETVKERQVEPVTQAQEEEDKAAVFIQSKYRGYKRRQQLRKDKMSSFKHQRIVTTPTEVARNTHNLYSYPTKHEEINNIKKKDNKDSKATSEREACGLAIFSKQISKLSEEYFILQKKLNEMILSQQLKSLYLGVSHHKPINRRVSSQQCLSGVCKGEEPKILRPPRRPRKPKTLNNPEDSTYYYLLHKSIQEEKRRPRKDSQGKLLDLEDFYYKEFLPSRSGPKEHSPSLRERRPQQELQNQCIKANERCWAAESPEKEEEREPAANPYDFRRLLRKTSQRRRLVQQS
Chain of Serine/threonine-protein kinase 36 (Homo sapiens) (Q9NRP7 whole entry): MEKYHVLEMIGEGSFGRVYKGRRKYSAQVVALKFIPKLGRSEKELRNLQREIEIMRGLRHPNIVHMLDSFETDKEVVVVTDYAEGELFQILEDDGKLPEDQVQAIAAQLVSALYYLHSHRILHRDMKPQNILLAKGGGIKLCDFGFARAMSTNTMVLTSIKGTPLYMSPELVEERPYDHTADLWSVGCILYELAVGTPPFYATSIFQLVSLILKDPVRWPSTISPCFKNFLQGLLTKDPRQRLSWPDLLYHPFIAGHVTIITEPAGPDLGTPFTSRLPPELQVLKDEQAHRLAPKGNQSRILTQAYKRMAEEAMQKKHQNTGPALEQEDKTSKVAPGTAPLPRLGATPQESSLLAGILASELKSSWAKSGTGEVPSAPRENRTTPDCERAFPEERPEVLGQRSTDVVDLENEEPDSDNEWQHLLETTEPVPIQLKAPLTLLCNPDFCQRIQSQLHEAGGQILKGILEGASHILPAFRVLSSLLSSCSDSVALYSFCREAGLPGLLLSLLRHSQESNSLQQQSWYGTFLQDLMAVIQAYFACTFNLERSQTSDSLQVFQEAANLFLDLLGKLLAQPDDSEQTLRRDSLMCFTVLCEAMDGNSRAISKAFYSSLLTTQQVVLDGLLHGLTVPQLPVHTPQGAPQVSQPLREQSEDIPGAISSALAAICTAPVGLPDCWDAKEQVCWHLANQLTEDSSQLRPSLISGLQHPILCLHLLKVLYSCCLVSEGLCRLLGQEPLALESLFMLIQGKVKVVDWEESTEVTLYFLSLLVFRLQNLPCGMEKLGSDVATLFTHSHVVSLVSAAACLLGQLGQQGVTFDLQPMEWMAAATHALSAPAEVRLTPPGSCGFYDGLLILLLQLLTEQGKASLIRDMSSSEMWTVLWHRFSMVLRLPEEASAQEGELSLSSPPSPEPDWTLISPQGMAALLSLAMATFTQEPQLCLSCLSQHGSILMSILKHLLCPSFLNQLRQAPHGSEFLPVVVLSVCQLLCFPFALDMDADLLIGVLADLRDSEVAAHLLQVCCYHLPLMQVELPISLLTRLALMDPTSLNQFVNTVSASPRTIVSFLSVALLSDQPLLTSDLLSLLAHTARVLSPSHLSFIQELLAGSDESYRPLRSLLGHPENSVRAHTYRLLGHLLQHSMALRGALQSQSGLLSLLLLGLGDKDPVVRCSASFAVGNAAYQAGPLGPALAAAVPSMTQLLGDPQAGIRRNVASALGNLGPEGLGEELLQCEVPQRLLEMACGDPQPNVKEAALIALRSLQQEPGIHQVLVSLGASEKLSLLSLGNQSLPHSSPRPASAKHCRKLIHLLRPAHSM
Chain of Leukotriene C4 synthase (Cavia porcellus) (A6XA80 whole entry): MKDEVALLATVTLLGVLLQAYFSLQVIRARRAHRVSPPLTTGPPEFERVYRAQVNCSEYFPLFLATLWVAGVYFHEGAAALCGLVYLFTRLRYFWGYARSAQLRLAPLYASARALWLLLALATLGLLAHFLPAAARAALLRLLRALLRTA

CCOCCn1cc(C(=O)Nc2ccc(-n3nc(-c4cccnc4)cc3C(F)(F)F)cn2)ccc1=O [BI 1935]
residual activity [1]: 94% | residual activity [2]: 100% | residual activity [3]: 90% | residual activity [4]: 108% | activity at 10 µM [5]: 88.5% (not active) | Ki ([6]; read-out: Ki): 4.48 µM | Ki ([6]; read-out: pKi (converted)): 5.01 µM | residual activity [7]: 96% | residual activity [8]: 112% | residual activity [9]: 71% | residual activity [10]: 86% | residual activity [11]: 100% | residual activity [12]: 100% | residual activity [13]: 100% | residual activity [14]: 80% | residual activity [15]: 81% | residual activity [16]: 100% | residual activity [17]: 99% | inhibition [18]: 13.9% | residual activity [19]: 100% | residual activity [20]: 96% | residual activity [21]: 89% | residual activity [22]: 88% | residual activity [23]: 61% | residual activity [24]: 89% | residual activity [25]: 100% | residual activity [26]: 100% | residual activity [27]: 73% | residual activity [28]: 100% | inhibition [29]: 50% | residual activity [30]: 79% | residual activity [31]: 92% | residual activity [32]: 81% | residual activity [33]: 88% | activity at 10 µM [34]: 94.5% (not active) | residual activity [35]: 100% | inhibition [36]: 3.75% | residual activity [37]: 94% | residual activity [38]: 100% | residual activity [39]: 74% | residual activity [40]: 81% | residual activity [41]: 100% | residual activity [42]: 68% | residual activity [43]: 80% | residual activity [44]: 100%

From ChEMBL document CHEMBL4507283, “Data for DCP probe BI-1935” (2021)
